Source: article PMC7582192, “Targeting N-myristoylation for therapy of B-cell lymphomas” (Nature Communications, 2020)

Target: T1, Lyn (Homo sapiens, UniProt P07948)
T1 construct: endogenous Lyn in BL2 cells
Assay: western blot of P-Lyn (Y396) in anti-IgM stimulated BL2 cells, […] for […] h
Format: cell-based

T1 sequence (P07948 2-512): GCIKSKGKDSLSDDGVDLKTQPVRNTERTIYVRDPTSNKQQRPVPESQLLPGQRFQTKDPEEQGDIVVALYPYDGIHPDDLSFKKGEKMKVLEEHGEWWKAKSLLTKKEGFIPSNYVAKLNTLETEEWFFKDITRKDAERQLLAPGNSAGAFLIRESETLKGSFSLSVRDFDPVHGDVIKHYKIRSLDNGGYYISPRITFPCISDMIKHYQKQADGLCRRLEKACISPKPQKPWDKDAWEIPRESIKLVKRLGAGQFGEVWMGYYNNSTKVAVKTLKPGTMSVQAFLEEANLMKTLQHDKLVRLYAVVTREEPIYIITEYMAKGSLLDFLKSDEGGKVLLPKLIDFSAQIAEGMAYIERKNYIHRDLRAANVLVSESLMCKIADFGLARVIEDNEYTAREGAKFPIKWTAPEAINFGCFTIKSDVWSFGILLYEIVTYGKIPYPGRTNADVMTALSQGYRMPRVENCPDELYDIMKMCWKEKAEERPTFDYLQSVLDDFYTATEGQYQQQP

In the case of `Cc1nc(Nc2ncc(C(=O)Nc3c(C)cccc3Cl)s2)cc(N2CCN(CCO)CC2)n1` [dasatinib], the “western blot of P-Lyn (Y396) in anti-IgM stimulated BL2 cells, 0.1 or 1.0 μM for” value is reported as “Dasatinib and ibrutinib selectively inhibited their respective targets as measured using anti-P-Lyn, anti-P-SFKs, and anti-P-BTK antibodies”.
